Where “and” joins values, the source holds several entries; their conditions need not be identical. Equal entries are not always repeated.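 A five-concentration, 48-hour dose response in 96-well plates underlies each endpoint, interpolated linearly between surrounding concentrations. The concentration for 50% growth inhibition is given as GI50. At the TGI there is no net growth.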
What was measured:
Assay in all cases: DTP human tumour cell line panel, 48 h
MOLT-4 leukemia = test system: MOLT-4 leukemia
RPMI-8226 leukemia = test system: RPMI-8226 leukemia
KM12 colon = test system: KM12 colon
786-0 renal = test system: 786-0 renal
HOP-62 NSCLC = test system: HOP-62 NSCLC
UACC-257 melanoma = test system: UACC-257 melanoma
M14 melanoma = test system: M14 melanoma
SN12C renal = test system: SN12C renal
BT-549 breast = test system: BT-549 breast
OVCAR-5 ovarian = test system: OVCAR-5 ovarian
SF-295 CNS = test system: SF-295 CNS

## CC(=N\N=C\c1ccccn1)/C(C)=N/N=C(C)/C(C)=N/N=C(C)/C(C)=N/N=C/c1ccccn1
MOLT-4 leukemia
  TGI: > 100 µM
RPMI-8226 leukemia
  TGI: > 100 µM
KM12 colon
  TGI: > 100 µM
786-0 renal
  TGI: > 100 µM
HOP-62 NSCLC
  TGI: > 100 µM
UACC-257 melanoma
  TGI: > 100 µM
M14 melanoma
  TGI: > 100 µM
SN12C renal
  TGI: > 100 µM
BT-549 breast
  TGI: > 100 µM
OVCAR-5 ovarian
  TGI: > 100 µM
SF-295 CNS
  TGI: > 100 µM

## CS(=O)(=O)O.[Ag]
MOLT-4 leukemia
  TGI: 5.3 µM
RPMI-8226 leukemia
  TGI: 6.29 µM
KM12 colon
  TGI: 89.8 µM
786-0 renal
  TGI: 29.9 µM
HOP-62 NSCLC
  TGI: 65.9 µM
UACC-257 melanoma
  TGI: 24.4 µM
M14 melanoma
  TGI: 9.44 µM
SN12C renal
  TGI: 38.7 µM
BT-549 breast
  TGI: 38 µM
OVCAR-5 ovarian
  TGI: 35 µM
SF-295 CNS
  TGI: > 100 µM

## O=C(O)C1SCCS1
MOLT-4 leukemia
  TGI: > 100 µM
RPMI-8226 leukemia
  TGI: > 100 µM
786-0 renal
  TGI: > 100 µM
HOP-62 NSCLC
  TGI: > 100 µM
UACC-257 melanoma
  TGI: > 100 µM
M14 melanoma
  TGI: > 100 µM
SN12C renal
  TGI: > 100 µM
BT-549 breast
  TGI: > 100 µM
OVCAR-5 ovarian
  TGI: > 100 µM
SF-295 CNS
  TGI: > 100 µM

## COC(=O)n1c(CBr)c(Br)c2ccccc21
MOLT-4 leukemia
  TGI: 76.3 µM
RPMI-8226 leukemia
  TGI: 58.7 µM
KM12 colon
  TGI: > 100 µM
786-0 renal
  TGI: > 100 µM
HOP-62 NSCLC
  TGI: 54 µM
UACC-257 melanoma
  TGI: > 100 µM
M14 melanoma
  TGI: > 100 µM
OVCAR-5 ovarian
  TGI: 79.2 µM
SF-295 CNS
  TGI: 69.9 µM

## CC1(C)[C@@H]2C[C@H]1C(Cc1cccc(C[C@H]3c4cc(-c5ccccn5)ncc4[C@H]4C[C@@H]3C4(C)C)c1)c1cc(-c3ccccn3)ncc12 (stereo partly specified)
MOLT-4 leukemia
  TGI: 1.91 µM
RPMI-8226 leukemia
  TGI: 32.1 µM
KM12 colon
  TGI: > 76.9 µM
HOP-62 NSCLC
  TGI: 15.5 µM
UACC-257 melanoma
  TGI: > 42.4 µM
M14 melanoma
  GI50: 858 nM
  TGI: 8.45 µM
SN12C renal
  TGI: > 100 µM
BT-549 breast
  TGI: > 93.5 µM
OVCAR-5 ovarian
  TGI: > 100 µM
SF-295 CNS
  TGI: > 54.3 µM

## O=C(O)/C=C/C(=O)O
MOLT-4 leukemia
  TGI: > 100 µM
RPMI-8226 leukemia
  TGI: > 100 µM
KM12 colon
  TGI: > 100 µM
786-0 renal
  TGI: > 100 µM
HOP-62 NSCLC
  TGI: > 100 µM
UACC-257 melanoma
  TGI: > 100 µM
M14 melanoma
  TGI: > 100 µM
SN12C renal
  TGI: > 100 µM
OVCAR-5 ovarian
  TGI: > 100 µM
SF-295 CNS
  TGI: > 100 µM

## O=C(OCc1ccccc1)N1c2cc([N+](=O)[O-])ccc2C(=O)N2CCC[C@H]2C1O (stereo partly specified)
MOLT-4 leukemia
  TGI: > 100 µM
RPMI-8226 leukemia
  TGI: > 100 µM
KM12 colon
  TGI: > 100 µM
786-0 renal
  TGI: > 100 µM
HOP-62 NSCLC
  TGI: > 100 µM
UACC-257 melanoma
  TGI: > 100 µM
M14 melanoma
  TGI: > 100 µM
SN12C renal
  TGI: > 100 µM
BT-549 breast
  TGI: > 100 µM
OVCAR-5 ovarian
  TGI: > 100 µM
SF-295 CNS
  TGI: > 100 µM

## CC(C)C(C/C=C1\CC(CO)(COC(=O)CC(C(C)C)C(C)C)OC1=O)C(C)C (stereo unspecified)
MOLT-4 leukemia
  TGI: 21.4 µM
KM12 colon
  TGI: 28.6 µM
786-0 renal
  TGI: 21.1 µM
HOP-62 NSCLC
  TGI: 20.5 µM
UACC-257 melanoma
  TGI: 29.5 µM
M14 melanoma
  TGI: 24.6 µM
SN12C renal
  TGI: 22.1 µM
BT-549 breast
  TGI: 27.8 µM
OVCAR-5 ovarian
  TGI: 26.9 µM
SF-295 CNS
  TGI: 20.2 µM

## CC[C@@H]1CC[C@@H]2[C@H](CC[C@]3(C)[C@@H](OS(=O)(=O)c4ccc(C)cc4)CC[C@@H]23)[C@H]1CO
MOLT-4 leukemia
  TGI: > 100 µM
RPMI-8226 leukemia
  TGI: > 100 µM
KM12 colon
  TGI: > 100 µM
786-0 renal
  TGI: > 100 µM
HOP-62 NSCLC
  TGI: > 100 µM
UACC-257 melanoma
  TGI: > 100 µM
M14 melanoma
  TGI: > 100 µM
SN12C renal
  TGI: > 100 µM
BT-549 breast
  TGI: > 100 µM
OVCAR-5 ovarian
  TGI: > 100 µM
SF-295 CNS
  TGI: > 100 µM

## CCS(=O)(=O)c1c2cc(OC)ccc2nc2ccc(OC)cc12
MOLT-4 leukemia
  TGI: > 100 µM
KM12 colon
  TGI: > 100 µM
786-0 renal
  TGI: > 100 µM
HOP-62 NSCLC
  TGI: > 100 µM
UACC-257 melanoma
  TGI: > 100 µM
M14 melanoma
  TGI: > 100 µM
SN12C renal
  TGI: > 100 µM
OVCAR-5 ovarian
  TGI: > 100 µM
SF-295 CNS
  TGI: > 100 µM

## C/C=C\C(CC(=O)NCCC1CN(C(=O)c2ccccc2)c2ccccc21)CC(=O)OC (stereo unspecified)
MOLT-4 leukemia
  TGI: > 100 µM
RPMI-8226 leukemia
  TGI: > 100 µM
KM12 colon
  TGI: > 100 µM
786-0 renal
  TGI: > 100 µM
HOP-62 NSCLC
  TGI: > 100 µM
UACC-257 melanoma
  TGI: > 100 µM
M14 melanoma
  TGI: > 100 µM
BT-549 breast
  TGI: > 100 µM
OVCAR-5 ovarian
  TGI: > 100 µM
SF-295 CNS
  TGI: > 100 µM

## CC(=O)Nc1ccc(-c2nnc(SCC(=O)Nc3ccccc3C)o2)cc1
MOLT-4 leukemia
  TGI: > 100 µM
RPMI-8226 leukemia
  TGI: > 100 µM
KM12 colon
  TGI: > 100 µM
786-0 renal
  TGI: > 100 µM
HOP-62 NSCLC
  TGI: > 100 µM
UACC-257 melanoma
  TGI: > 100 µM
M14 melanoma
  TGI: > 100 µM
SN12C renal
  TGI: > 100 µM
OVCAR-5 ovarian
  TGI: > 100 µM
SF-295 CNS
  TGI: > 100 µM

## CN(C)CC(NC(NCS)C(=O)NCCNc1ccc(NCCNC(=O)C(NCS)NC(CN(C)C)OCCl)c2c1C(=O)c1c(O)ccc(O)c1C2=O)OCCl (stereo unspecified)
RPMI-8226 leukemia
  TGI: 0.03 µM
KM12 colon
  GI50: 211 nM
  TGI: 1.53 µM and 1.84 µM
HOP-62 NSCLC
  TGI: 0.482 µM
UACC-257 melanoma
  TGI: 3.6 µM
M14 melanoma
  GI50: 506 nM
SN12C renal
  GI50: < 1 nM
  TGI: 0.477 µM
OVCAR-5 ovarian
  GI50: 713 nM
SF-295 CNS
  TGI: 1.39 µM

## CCOC(=O)N(C)C1(c2ccccc2)CCN(CCCC(=O)c2ccc(F)cc2)CC1
MOLT-4 leukemia
  TGI: > 100 µM
RPMI-8226 leukemia
  TGI: 63.8 µM
KM12 colon
  TGI: 81.1 µM
786-0 renal
  TGI: 88.7 µM
HOP-62 NSCLC
  TGI: > 100 µM
UACC-257 melanoma
  TGI: 38.2 µM
M14 melanoma
  TGI: 32.1 µM
SN12C renal
  TGI: > 100 µM
OVCAR-5 ovarian
  TGI: > 100 µM
SF-295 CNS
  TGI: > 100 µM

## COc1ccc(C2=CN3CCC[C@H]3C=C2c2cc(O)c(OC)c(OC)c2)cc1OC
MOLT-4 leukemia
  TGI: 0.183 µM and 0.393 µM
RPMI-8226 leukemia
  TGI: 0.0806 µM and 0.202 µM
KM12 colon
  TGI: 0.0394 µM
HOP-62 NSCLC
  TGI: 0.122 µM and 0.148 µM
UACC-257 melanoma
  TGI: 0.0899 µM
M14 melanoma
  TGI: 0.0204 µM
SN12C renal
  TGI: 0.0568 µM and 0.189 µM
BT-549 breast
  TGI: 0.331 µM
OVCAR-5 ovarian
  TGI: 0.127 µM
SF-295 CNS
  TGI: 0.115 µM

## CN1CCCCC(C(O)(c2ccccc2)c2ccccc2)C1=O (stereo unspecified)
MOLT-4 leukemia
  TGI: > 100 µM
RPMI-8226 leukemia
  TGI: 65.7 µM
KM12 colon
  TGI: > 100 µM
786-0 renal
  TGI: > 100 µM
HOP-62 NSCLC
  TGI: > 100 µM
UACC-257 melanoma
  TGI: > 100 µM
M14 melanoma
  TGI: > 100 µM
SN12C renal
  TGI: > 100 µM
OVCAR-5 ovarian
  TGI: > 100 µM
SF-295 CNS
  TGI: > 100 µM

## COC(=O)c1cccc(C(=O)OC)c1
MOLT-4 leukemia
  TGI: > 100 µM
RPMI-8226 leukemia
  TGI: > 100 µM
KM12 colon
  TGI: > 100 µM
HOP-62 NSCLC
  TGI: > 100 µM
UACC-257 melanoma
  TGI: > 100 µM
M14 melanoma
  TGI: > 100 µM
SN12C renal
  TGI: > 100 µM
OVCAR-5 ovarian
  TGI: > 100 µM
SF-295 CNS
  TGI: > 100 µM

## CC(=O)NC1=C(C)C(=O)c2c(nc3n2CC[C@H]3OC(C)=O)C1=O
RPMI-8226 leukemia
  TGI: 7.4 µM
KM12 colon
  TGI: 3.52 µM
786-0 renal
  TGI: 4.32 µM
HOP-62 NSCLC
  TGI: 28.3 µM
UACC-257 melanoma
  TGI: 2.2 µM
M14 melanoma
  TGI: 4.01 µM
SN12C renal
  TGI: 3.17 µM
BT-549 breast
  TGI: 3.01 µM
OVCAR-5 ovarian
  TGI: 7.34 µM
SF-295 CNS
  TGI: 5.49 µM

## CC(C)(NC1=NCCO1)c1ccccc1
MOLT-4 leukemia
  TGI: > 100 µM
RPMI-8226 leukemia
  TGI: > 100 µM
KM12 colon
  TGI: > 100 µM
786-0 renal
  TGI: > 100 µM
HOP-62 NSCLC
  TGI: > 100 µM
UACC-257 melanoma
  TGI: > 100 µM
M14 melanoma
  TGI: > 100 µM
SN12C renal
  TGI: > 100 µM
OVCAR-5 ovarian
  TGI: > 100 µM
SF-295 CNS
  TGI: > 100 µM

## Cc1cc([N+](=O)[O-])ccc1N=NC(=O)NNc1ccc([N+](=O)[O-])cc1C
MOLT-4 leukemia
  TGI: 37.5 µM
RPMI-8226 leukemia
  TGI: 55.2 µM
786-0 renal
  TGI: 30.6 µM
HOP-62 NSCLC
  TGI: 29 µM
UACC-257 melanoma
  TGI: 39.4 µM
M14 melanoma
  TGI: 28.3 µM
SN12C renal
  TGI: 63.8 µM
BT-549 breast
  TGI: 28.3 µM
OVCAR-5 ovarian
  TGI: 31.8 µM

— PubChem BioAssay (NCI)
